Measured values published in patent publication US20230303483A1, “USE OF STROBILURIN TYPE COMPOUNDS FOR COMBATING PHYTOPATHOGENIC FUNGI CONTAINING AN AMINO ACID SUBSTITUTION F129L IN THE MITOCHONDRIAL CYTOCHROME B PROTEIN CONFERRING RESISTANCE TO QO […]” (BASF SE, priority 2020, published 2023).

Assays:
[1] = tested on: Phakopsora pachyrhizi (strain containing the amino acid substitution F129L in the mitochondrial cytochrome b protein); assay: Use example 1: protective control of soybean rust on soybeans (PHAKPA P2), inoculation 2 days after spraying; format: in vivo; settings: % diseased leaf area on soybean, 16 ppm spray, inoculation 2 days after treatment, untreated controls usually >85 %
Description: (§1) The compound was dissolved in a mixture of acetone and/or dimethylsulfoxide and the wetting agent/emulsifier Wettol, which is based on ethoxylated alkylphenoles, in a ratio (volume) solvent-emulsifier of 99 to 1 to give a total volume of 5 ml. Subsequently, water was added to total volume of 100 ml. This stock solution was then diluted with the described solvent-emulsifier-water mixture to the final concentration given in the table below.
Use example 1. Protective control of soybean rust on soybeans caused by Phakopsora pachyrhizi (PHAKPA P2)
(§2) Leaves of potted soybean seedlings were sprayed to run-off with the previously described spray solution, containing the concentration of active ingredient or their mixture as described below. The plants were allowed to air-dry. The trial plants were cultivated for 2 days in a greenhouse chamber at 23-27° C. and a relative humidity between 60 and 80 %. Then the plants were inoculated with spores of Phakopsora pachyrhizi. The strain used contains the amino acid substitution F129L in the mitochondrial cytochrome b protein conferring resistance to Qo inhibitors. To ensure the success the artificial inoculation, the plants were transferred to a humid chamber with a relative humidity of about 95 % and 20 to 24° C. for 24 hr. The trial plants were cultivated for up to 14 days in a greenhouse chamber at 23 to 27° C. and a relative humidity between 60 and 80 %. The extent of fungal attack on the leaves was visually assessed as % diseased leaf area, the disease level of untreated controls was usually higher than 85 %.
(§3) All test results below are given for the control of phytopathogenic fungi containing the amino acid substitution F129L in the mitochondrial cytochrome b protein conferring resistance to Qo inhibitors.

[2] = tested on: Phakopsora pachyrhizi (strain containing the amino acid substitution F129L in the mitochondrial cytochrome b protein); assay: Use example 2: protective control of soybean rust on soybeans (PHAKPA P6), inoculation six days after spraying; format: in vivo; settings: % diseased leaf area on soybean, 16 ppm spray, inoculation six days after treatment, untreated controls usually >85 %
Description: as §1
Use example 2. Protective control of soybean rust on soybeans caused by Phakopsora pachyrhizi (PHAKPA P6)
as §2, with “active ingredient as described” for “active ingredient or their mixture as described”, “cultivated for six days in” for “cultivated for 2 days in”, “% and 23 to 27°” for “% and 20 to 24°”, “23 to 27° C. for” for “20 to 24° C. for”
as §3

| SMILES | PHAKPA Disease level (%) P2 at 16 ppm [1] | PHAKPA Disease level (%) P6 at 16 ppm [2] |
| --- | --- | --- |
| CNC(=O)/C(=N/OC)c1ccccc1CO/N=C(\C)C#Cc1ccc(OC(C)C)cc1 [Example 88] | 77% | 60% |
| CNC(=O)/C(=N/OC)c1cccc(C)c1CO/N=C(\C)C#Cc1cccc(Br)c1 [Example 29] | 1% | 0% |
| CNC(=O)/C(=N/OC)c1cccc(C)c1CO/N=C(\C)C#Cc1ccccc1OC(F)(F)F [Example 25] | 0% | 0% |
| CO/N=C(/C(=O)OC)c1ccccc1CO/N=C(\C)C#Cc1ccc(Cl)cc1C(C)C [Example 109] | 11% | 12% |
| CNC(=O)/C(=N/OC)c1ccccc1CO/N=C(\C)C#Cc1ccc(Br)cc1 [Example 55] | 23% | 40% |
| CNC(=O)/C(=N/OC)c1ccccc1CO/N=C(\C)C#Cc1ccc(C2CC2)cc1 [Example 92] | 60% | 57% |
| CNC(=O)/C(=N/OC)c1cccc(C)c1CO/N=C(\C)C#Cc1ccc(Cl)cc1 [Example 31] | 0% | 5% |
| CNC(=O)/C(=N/OC)c1ccccc1CO/N=C(\C)C#Cc1cccc(OC(F)(F)F)c1 [Example 53] | 0% | 0% |
| CNC(=O)/C(=N/OC)c1cccc(C)c1CO/N=C(\C)C#Cc1ccc(Br)cc1 [Example 59] | 13% | 28% |
| CO/N=C(/C(=O)OC)c1ccccc1CO/N=C(\C)C#Cc1cccc(Br)c1 [Example 6] | 25% | 43% |
| CNC(=O)/C(=N/OC)c1ccccc1CO/N=C(\C)C#Cc1ccccc1C [Example 51] | 0% | 0% |
| CNC(=O)/C(=N/OC)c1cccc(C)c1CO/N=C(\C)C#Cc1ccccc1C(F)(F)F [Example 68] | 0% | 1% |
| CO/N=C(/C(=O)OC)c1ccccc1CO/N=C(\C)C#Cc1ccc(Cl)cc1 [Example 3] | 70% | 70% |
| CO/N=C(/C(=O)OC)c1cccc(C)c1CO/N=C(\C)C#Cc1cccc(C(F)(F)F)c1 [Example 39] | 2% | 1% |
| CNC(=O)/C(=N/OC)c1ccccc1CO/N=C(\C)C#Cc1ccc(Cl)cc1-c1ccc(F)cc1 [Example 115] | 2% | 1% |
| CO/N=C(/C(=O)OC)c1ccccc1CO/N=C(\C)C#Cc1cccc(C)c1 [Example 43] | 40% | 27% |
| CNC(=O)/C(=N/OC)c1ccccc1CO/N=C(\C)C#Cc1ccccc1C(F)(F)F [Example 69] | 1% | 2% |
| CO/N=C(/C(=O)OC)c1cccc(C)c1CO/N=C(\C)C#Cc1ccc(F)cc1 [Example 34] | 0% | 0% |
| CO/N=C(/C(=O)OC)c1cccc(C)c1CO/N=C(\C)C#Cc1ccc(C)cc1 [Example 20] | 2% | 1% |
| CO/N=C(/C(=O)OC)c1cccc(C)c1CO/N=C(\C)C#Cc1ccccc1OC(F)(F)F [Example 26] | 2% | 6% |
| CNC(=O)/C(=N/OC)c1ccccc1CO/N=C(\C)C#Cc1cccc(F)c1 [Example 37] | 6% | 8% |
| CO/C=C(/C(=O)OC)c1ccccc1CO/N=C(\C)C#Cc1ccc(F)cc1 [Example 114] | 0% | 0% |
